Assays:
Type in all cases: in vivo, human
[1] = Laboratory hormone levels of supplemented hormones (Example 3)
Procedure: They were also prescribed Dehydroepiandrosterone (DHEA) 5 mg and Nature Throid thyroid hormone supplement 48.75 mg, progesterone 100 mg every night and testosterone cream 4 mg per day for low libido, and they were taking turmeric and krill oil. They started tapering off the plaquenil.
During treatment estradiol 1.0 mg was started and also at this point they were off the plaquenil for 3 weeks totally. […] In addition, their Free T3 (triiodothyronine) was 3.1.
During the treatment regimen, the administered DHEA was increased to 10 mg. The DHEA hormone was measured to be 203, Estradiol 117, progesterone 0.2, T3 3.3.
The patient's levels are at optimal levels where the T3 is in the upper range.

[2] = system: Hashimotos Thyroiditis, Fibromyalgia and Eosinophilic Esophaqitis; experiment: Case report Example 1: patient treated with LDN and Vitamin D; conditions: LDN 1.5 to 4.5 mg daily, Vitamin D 5,000 then 7,000 units per day
Procedure: Patient's symptoms included severe fatigue and muscle aches and pains over their body from the fibromyalgia. They were already taking Vitamin D at a daily dosage of 5,000 units and 130 mg of Nature Throid supplementation (a porcine product). For the first week of LDN treatment, the patient was administered daily dosages of 1.5 mg LDN and the 5,000 units of Vitamin D continued. During the second week, the daily dosage of LDN was increased to 3.0 mg. During the third week, the daily dosage of LDN was increased to 4.5 mg. […] Administration of Vitamin D was increased to 7,000 units per day.
Her thyroid medication requirements were reduced. Her symptoms of fibromyalgia were resolved after addition of the naltrexone to the regimen.

[3] = system: Systemic Lupus Erythematosus (SLE) and Sjorgren's Disease; experiment: Case report Example 3: patient treated with naltrexone and Vitamin D3; conditions: plaquenil 200 mg twice a day, before naltrexone
[4] = Standard serum test of vitamin D level (Example 2)
Procedure: The patient was receiving Synthroid as treatment for hypothyroidism, and they also presented with a rare form of macular degeneration requiring intra-ocular injections and interstitial cystitis. […] At the time they were not aware they had autoimmune thyroiditis.
Their dosage for Nature Throid was 97.5 mg twice a day for their thyroid supplementation. Their vitamin D level was 45 ng/ml, T3 was 4.1 and T4 (thyroxine, which converts into T3 in peripheral tissues) was 0.84. Their thyroid has stabilized as shown by these values; the patient's levels are at optimal levels where the T3 is in the upper range.

[5] = SpectraCell test of Vitamin D levels (Example 1); conditions: after a month of treatment; Vitamin D 5,000 units daily; 55 is adequate
Text: A sufficient amount can be determined by the skilled person by making a routine assessment of certain parameters of the patient to undergo the administration, such as, but not limited to, age, weight, gender, history of illness and/or other lifestyle factors including smoking, alcohol consumption and the level of exercise. Furthermore the skilled person can ascertain whether a dose has been sufficient to raise the vitamin D blood concentration to a sufficient amount by performing routine biochemical and analytical assays on a biological sample obtained from the subject. Preferably, the sample upon which said analysis is to be performed is blood. Examples of such well known assays include but are not limited to mass spectrometry, where the level of vitamin D or active metabolites thereof can be quantitatively measured. A sufficient amount is therefore an amount that achieves the desired blood vitamin D concentration. The desired concentration can be achieved after single administration or after repeated administrations of a dose of vitamin D or an active metabolite thereof. […]

Thyroiditis = experiment: Case report Example 2: patient with thyroiditis treated with LDN and Vitamin D; conditions: 5,000 units of Vitamin D per day, before naltrexone
Text: This antibody activity then can interfere with the ability to incorporate iodine into the thyroid molecule, thus interfering with thyroid cell function.

[6] = testosterone cream 4 mg per day, later measurements

Question: For C[C@]12CC[C@H](O)CC1=CC[C@@H]1[C@@H]2CC[C@]2(C)C(=O)CC[C@@H]12 [DHEA, Dehydroepiandrosterone], which DHEA hormone level ([1]; DHEA increased to 10 mg) is on record?
Answer: 203

Question: What about the DHEA hormone level ([1]; last laboratory results) of the same compound?
Answer: 169

Question: And the DHEA hormone level ([1]; later measurements)?
Answer: 142

Question: Which fibromyalgia symptoms [2] does the source give for O=C1CC[C@@]2(O)[C@H]3Cc4ccc(O)c5c4[C@@]2(CCN3CC2CC2)[C@H]1O5 [naltrexone, morphinan-6-one,17-(cyclopropylmethyl)-4,5-epoxy-3,14-dihydroxy-(5a)] here?
Answer: resolved

Question: With CCN(CCO)CCCC(C)Nc1ccnc2cc(Cl)ccc12 (centres unmarked) [plaquenil] as the compound, how does the benefit on symptoms [3] read?
Answer: minimal benefit

Question: Which Free testosterone [1, 6] does the source give for C[C@]12CC[C@H]3[C@@H](CCC4=CC(=O)CC[C@@]43C)[C@@H]1CC[C@@H]2O [testosterone] here?
Answer: 1.3

Question: What about the total testosterone [1, 6] of the same compound?
Answer: 19

Question: For Vitamin D, which “vitamin D 25 OH level” value ([4]; 5,000 units of vitamin D daily, standard serum test, deficient level) is on record?
Answer: 39

Question: And the “vitamin D level” value ([4]; during LDN and Vitamin D treatment)?
Answer: 45 ng/mL

Question: And the “Vitamin D levels (SpectraCell test)” value [5]?
Answer: 47

Question: And the “effect in regards to interstitial cystitis” value (Thyroiditis)?
Answer: did not seem to have any significant effect

— patent publication US20230381171A1, “AUTOIMMUNE THERAPY” (LDN Pharma Limited, priority 2018, published 2023)
